Reference: patent US4239768A, “Method for relieving irritable bowel syndrome symptoms” (McNeilab, Inc., priority 1978, dated 1980)
Structures can show the parent of a compound that is named as a salt.

These molecules were tested on sensitivity to distension of th colonic wall (assay: Glass bead expulsion test (time between rectal insertion and expulsion of bead)). Details: Mus musculus, 1 h; oral; drug given one hour prior to glass bead insertion; ED50 = dose causing an activity index of 2; read-out: ED50 Per Os.
Format: in vivo, male albino mice
Text: The disorder is characterized by abdominal pain, diarrhea, constipation and like symptoms caused by excessive sensitivity to distension of the bowel by the presence of intestinal gas and/or fecal material. The extent to which a compound is effective in providing relief may be determined by a test in which a glass bead is inserted into the rectum and the lapse of time between insertion and expulsion of the bead determined. Compounds which are effective in decreasing the sensitivity to distension of th colonic wall delays the expulsion of the bead. The test is carried out with male albino mice of 18-25 grams body weight using groups of five mice for each compound dose tested. The initial screen dose selected for all compounds is 50 milligrams per kilogram of body weight (mg/kg) administered orally in a volume of 0.1 milliliter per 10 grams of body weight. The control groups receive the vehicle, 0.5 percent methocel, used for both oral and intraperitoneal administration. The mice are fasted one hour before testing and the test drugs are given one hour prior to glass bead insertion. At the end of the pretreatment time, the mouse is picked up and held firmly in one hand with his abdomen facing the technician. The glass bead of 3 millimeters in diameter is positioned at the rectum and using a pinching action with a thumb and forefinger, the bead is pushed into the rectum. Then using a glass rod of 3 millimeters in diameter which has been lubricated with 0.5 percent methocel to facilitate insertion, the glass bead is pushed up into the rectum a distance of 2 centimeters using a slow gentle turning motion. The mice are timed as a group using the last mouse inserted as zero time and the number of beads expelled in a group at different timed intervals are recorded. The groups are based on timed intervals of 0 to 5 minutes, 5 to 10 minutes, 10 to 20 minutes, 20 to 40 minutes and greater than 40 minutes. They are given the activity index values of 0, 1, 2, 3 and 4, respectively. Mice who have not expelled their beads by the 40-minute cutoff time are examined for perforations. Those mice whose colons are perforated are eliminated from the group. The sum of the values divided by the number of mice or beads is termed the activity index for the drug tested. The ED50 is determined by regression lines using the method of least squares. The ED50 is arbitrarily assigned as that dose causing an activity index of 2. The results of this test employing intraperitoneal and oral administration of N-aryl-N'-(2-imidazolidinylidene)urea compounds are shown in Table I.

| SMILES | ED50 [mg/kg] |
| --- | --- |
| Cc1cccc(C)c1NC(=O)N=C1NCCN1 [2,6-di(CH3)-.phi., N-(2,6-dimethylphenyl)-N'-(2-imidazolidinylidene)urea] | 16 |
| Cl.O=C(N=C1NCCN1)Nc1c(Br)cccc1Br [2,6-diBr-.phi., N-(2,6-dibromophenyl)-N'-(2-imidazolidinylidene)urea hydrochloride] | 38 |
| Cl.O=C(N=C1NCCN1)Nc1c(Cl)cccc1Cl [2,6-diCl-.phi., N-(2,6-Dichlorophenyl)-N'-(2-imidazolidinylidene)urea Hydrochloride] | 13.7 |
| CCc1cccc(C)c1NC(=O)N=C1NCCN1 [2-C2 H5,6-CH3 -.phi., N-(2-Ethyl-6-methylphenyl)-N'-(2-imidazolidinylidene)urea. Fumarate (3:2)] | 121 |
| Cc1cccc(Cl)c1NC(=O)N=C1NCCN1.Cl [2-Cl,6-CH3 -.phi., N-(2-chloro-6-methylphenyl)-N'-(2-imidazolidinylidene)urea hydrochloride] | 35 |

Same assay, conditions: Mus musculus, ip, 1 h; intraperitoneal; drug given one hour prior to glass bead insertion; ED50 = dose causing an activity index of 2; read-out: ED50 Intraperitoneal

| SMILES | ED50 [mg/kg] |
| --- | --- |
| Cc1cccc(C)c1NC(=O)N=C1NCCN1 [2,6-di(CH3)-.phi., N-(2,6-dimethylphenyl)-N'-(2-imidazolidinylidene)urea] | 12 |
| Cl.O=C(N=C1NCCN1)Nc1c(Br)cccc1Br [2,6-diBr-.phi., N-(2,6-dibromophenyl)-N'-(2-imidazolidinylidene)urea hydrochloride] | 9 |
| Cl.O=C(N=C1NCCN1)Nc1c(Cl)cccc1Cl [2,6-diCl-.phi., N-(2,6-Dichlorophenyl)-N'-(2-imidazolidinylidene)urea Hydrochloride] | 7 |
| CCc1cccc(C)c1NC(=O)N=C1NCCN1 [2-C2 H5,6-CH3 -.phi., N-(2-Ethyl-6-methylphenyl)-N'-(2-imidazolidinylidene)urea. Fumarate (3:2)] | 43 |
| Cc1cccc(Cl)c1NC(=O)N=C1NCCN1.Cl [2-Cl,6-CH3 -.phi., N-(2-chloro-6-methylphenyl)-N'-(2-imidazolidinylidene)urea hydrochloride] | 8 |
